Patent US9422267B2, “Fused pyrimidine compounds and use thereof” (Medivation Technologies, Inc., priority 2012, dated 2016)

What was measured:
[1] = tested on: Akt phosphorylation induced by IGF-1R in HT-29 cells; test: Western blot analysis of Akt phosphorylation induced by IGF-1R; assay type: cell-based, Human; settings: then IGF-1 10 ng/mL 10 min, HT-29
Protocol: Inhibition of Akt phosphorylation induced by IGF-1R was studied by western blot analysis. Human colon carcinoma HT-29 cells were seeded at a density of 8×10^4 cells/well in a 24-well plate and grown in DME/F12 media containing 10% FBS for 24 h. The cells were then depleted of serum by incubation in DME/F12 media lacking FBS for 24 h. […] […] Lysed cells were centrifuged at 13,000 rpm for 15 min and the protein concentration soluble fraction (supernatant) of each sample was determined using a BCA protein assay (Pierce).

KDR = KDR (Homo sapiens, UniProt P35968); test: Caliper kinase profiling: KDR; assay type: biochemical; settings: read-out: Average % Inh @ 1 μM
Protocol: (§6) The compound was tested at concentrations of 1.0×10^−8 and 1.0×10^−9 M in the RapidKinase192™ panel in duplicate. […] The screening was performed using the Caliper EZReader2, a 4-sipper LabChip, and ProfilerPro Kinase Selectivity Assay Kits 1 and 2. The assay measures the conversion of a fluorescent peptide substrate to a phosphorylated product. Briefly, the reaction mixture was introduced through a capillary sipper onto the microfluidic chip, where the substrate and product were electrophoretically separated and detected by laser-induced fluorescence. The time-dependent fluorescence signal indicates the extent of the reaction.

HT-29 = test: Cell Titer-Glo cell viability: HT-29; assay type: cell-based; settings: Homo sapiens, HT-29, 72 h
Protocol: (§1) This assay quantitates the ATP present in order to determine the number of viable cells in culture. Briefly, the compounds were incubated with the cells for 72 h, followed by cell lysis. The resulting luminescent signal is proportional to the amount of ATP present and, therefore, directly proportional to the number of cells present in culture.
(§2) Compound nos. […] These cell lines are derived from human lung carcinoma, colon adenocarcinoma, colon adenocarcinoma, colon carcinoma, acute promyelocytic leukemia, colon adenocarcinoma, colon adenocarcinoma (from metastatic site lymph node), respectively.
(§3) Compounds 2b, 5, 6b and 10a were tested along with derivatives in viability assays as described above by Caliper LifeSciences Systems (Hanover, Md.), in A549, HCT-15, HCT-116, MCF-7, MDA-MB-231, OVCAR3, T47D, COLO205, HT-29, BT-20, HCC1187, HL-60, MDA-MB-175, SW-620, and UACC812 cells.

HL-60 = test: Cell Titer-Glo cell viability: HL-60; assay type: cell-based, human
Protocol: as §1, §2, §3

A549 = test: Cell Titer-Glo cell viability: A549; assay type: cell-based; settings: Homo sapiens, A549, non-small lung carcinoma
Protocol: as §1, §2, §3

COLO 205 = test: Cell Titer-Glo cell viability: COLO 205; assay type: cell-based; settings: Homo sapiens
Protocol: as §1, §2, §3

HCT-15 = test: Cell Titer-Glo cell viability: HCT-15; assay type: cell-based; settings: Homo sapiens, HCT15, colon carcinoma
Protocol: as §1, §2, §3

HCT-116 = test: Cell Titer-Glo cell viability: HCT-116; assay type: cell-based; settings: Homo sapiens, HCT116, colon carcinoma
Protocol: as §1, §2, §3

SW-620 = test: Cell Titer-Glo cell viability: SW-620; assay type: cell-based; settings: Homo sapiens, SW-620, metastatic colorectal cancer
Protocol: as §1, §2, §3

IGF1R = IGF1R (Homo sapiens, UniProt P08069); test: Caliper kinase profiling: IGF1R; assay type: biochemical; set-up: purchased Caliper LifeSciences (ProfilerPro Kinase Selectivity Assay Kits); settings: 1 μM, read-out: Average % Inh @ 1 μM
Protocol: as §6

BT-20 = test: Cell Titer-Glo cell viability: BT-20; assay type: cell-based; settings: Homo sapiens
Protocol: (§4) Compound nos. […] This panel of cell lines includes an ER− breast carcinoma, primary breast ductal carcinoma, prostate adenocarcinoma, mammary adenocarcinoma, mammary ductal carcinoma, mammary ductal carcinoma, ovary adenocarcinoma, ER+ breast carcinoma, ER-HER2+ mammary ductal carcinoma and an ER+ mammary ductal carcinoma, respectively.
as §1, §3

LNCaP = test: Cell Titer-Glo cell viability: LNCaP; assay type: cell-based; settings: Homo sapiens
Protocol: as §4, §1

MCF-7 = test: Cell Titer-Glo cell viability: MCF-7; assay type: cell-based; settings: Homo sapiens, MCF7, breast cancer
Protocol: as §4, §1, §3

T47D = test: Cell Titer-Glo cell viability: T47D; assay type: cell-based; settings: Homo sapiens, breast cancer
Protocol: as §4, §1, §3

OVCAR-3 = test: Cell Titer-Glo cell viability: OVCAR-3; assay type: cell-based; settings: Homo sapiens, OVCAR3, ovarian cancer
Protocol: as §4, §1, §3

UACC 812 = test: Cell Titer-Glo cell viability: UACC 812; assay type: cell-based; settings: Homo sapiens
Protocol: as §4, §1, §3
(§5) The inhibitory effects of Compound 8a were tested in two cell lines.

HCC 1187 = test: Cell Titer-Glo cell viability: HCC 1187; assay type: cell-based; settings: Homo sapiens
Protocol: as §4, §1, §3

ZR-75-1 = test: Cell Titer-Glo cell viability: ZR-75-1; assay type: cell-based; settings: Homo sapiens; ZR-75-1, breast cancer; 72 h
Protocol: as §4, §1

MDA MB 175 = test: Cell Titer-Glo cell viability: MDA MB 175; assay type: cell-based; settings: MDA-MB-175, breast cancer; 72 h incubation, Cell Titer-Glo
Protocol: as §4, §1, §3, §5

MDA MB 231 = test: Cell Titer-Glo cell viability: MDA MB 231; assay type: cell-based; settings: Homo sapiens, MDAMB231, breast cancer, 72 h incubation, Cell Titer-Glo
Protocol: as §4, §1, §3

AXL = target: T1, AXL (Homo sapiens, UniProt P30530); test: Caliper kinase profiling: AXL; settings: 0.01 μM
T1 sequence (P30530 26-894): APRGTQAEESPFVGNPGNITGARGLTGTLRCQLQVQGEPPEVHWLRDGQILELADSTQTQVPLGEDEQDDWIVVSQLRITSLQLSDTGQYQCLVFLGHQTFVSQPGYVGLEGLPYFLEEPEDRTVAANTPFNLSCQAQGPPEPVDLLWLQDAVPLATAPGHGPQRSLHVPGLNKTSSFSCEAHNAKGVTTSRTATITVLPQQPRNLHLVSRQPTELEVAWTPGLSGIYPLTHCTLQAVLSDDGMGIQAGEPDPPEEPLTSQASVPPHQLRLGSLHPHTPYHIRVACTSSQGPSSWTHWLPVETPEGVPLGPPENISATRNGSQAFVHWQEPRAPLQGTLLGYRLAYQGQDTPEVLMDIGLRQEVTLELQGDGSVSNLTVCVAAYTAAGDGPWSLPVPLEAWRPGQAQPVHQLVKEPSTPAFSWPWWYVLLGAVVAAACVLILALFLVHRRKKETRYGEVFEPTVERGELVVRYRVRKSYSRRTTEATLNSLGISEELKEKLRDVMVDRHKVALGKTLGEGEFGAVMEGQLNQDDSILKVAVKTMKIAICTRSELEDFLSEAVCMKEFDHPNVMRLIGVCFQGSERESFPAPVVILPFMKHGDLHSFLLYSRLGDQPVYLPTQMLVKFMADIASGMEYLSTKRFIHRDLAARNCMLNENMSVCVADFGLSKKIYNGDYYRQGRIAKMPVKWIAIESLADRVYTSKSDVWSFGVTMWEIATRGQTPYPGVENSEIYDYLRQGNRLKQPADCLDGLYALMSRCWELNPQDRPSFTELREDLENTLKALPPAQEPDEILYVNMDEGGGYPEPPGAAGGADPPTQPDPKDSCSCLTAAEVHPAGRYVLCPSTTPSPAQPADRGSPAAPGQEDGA
Protocol: as §6
(§7) The kinases tested were AurA, AurB, AurC, AXL, FAK2, IGF1R, InsR, Mer, MET, TrkB and TrkC.
(§8) The assays were conducted using the Caliper LabChip 3000 and a 12-sipper LabChip as described above.

FAK2(PTK2b) = FAK2(PTK2b) (Homo sapiens, UniProt Q14289); test: Caliper kinase assay: FAK2(PTK2b); settings: 0.01 μM
Protocol: as §6, §7, §8

NTRK2 (TRKB) = NTRK2 (TRKB) (Homo sapiens, UniProt Q16620); test: Caliper kinase profiling: NTRK2 (TRKB); settings: 0.01 μM
Protocol: as §6, §7, §8

TRKC (NTRK3) = TRKC (NTRK3) (Homo sapiens, UniProt Q16288); test: Caliper kinase profiling: TRKC (NTRK3); settings: 0.01 μM
Protocol: as §6, §7, §8

[2] = HT29, colon adenocarcinoma (second entry of the table), 72 h
[3] = 72 h incubation, Cell Titer-Glo

Chain of FAK2(PTK2b) (Q14289 whole entry): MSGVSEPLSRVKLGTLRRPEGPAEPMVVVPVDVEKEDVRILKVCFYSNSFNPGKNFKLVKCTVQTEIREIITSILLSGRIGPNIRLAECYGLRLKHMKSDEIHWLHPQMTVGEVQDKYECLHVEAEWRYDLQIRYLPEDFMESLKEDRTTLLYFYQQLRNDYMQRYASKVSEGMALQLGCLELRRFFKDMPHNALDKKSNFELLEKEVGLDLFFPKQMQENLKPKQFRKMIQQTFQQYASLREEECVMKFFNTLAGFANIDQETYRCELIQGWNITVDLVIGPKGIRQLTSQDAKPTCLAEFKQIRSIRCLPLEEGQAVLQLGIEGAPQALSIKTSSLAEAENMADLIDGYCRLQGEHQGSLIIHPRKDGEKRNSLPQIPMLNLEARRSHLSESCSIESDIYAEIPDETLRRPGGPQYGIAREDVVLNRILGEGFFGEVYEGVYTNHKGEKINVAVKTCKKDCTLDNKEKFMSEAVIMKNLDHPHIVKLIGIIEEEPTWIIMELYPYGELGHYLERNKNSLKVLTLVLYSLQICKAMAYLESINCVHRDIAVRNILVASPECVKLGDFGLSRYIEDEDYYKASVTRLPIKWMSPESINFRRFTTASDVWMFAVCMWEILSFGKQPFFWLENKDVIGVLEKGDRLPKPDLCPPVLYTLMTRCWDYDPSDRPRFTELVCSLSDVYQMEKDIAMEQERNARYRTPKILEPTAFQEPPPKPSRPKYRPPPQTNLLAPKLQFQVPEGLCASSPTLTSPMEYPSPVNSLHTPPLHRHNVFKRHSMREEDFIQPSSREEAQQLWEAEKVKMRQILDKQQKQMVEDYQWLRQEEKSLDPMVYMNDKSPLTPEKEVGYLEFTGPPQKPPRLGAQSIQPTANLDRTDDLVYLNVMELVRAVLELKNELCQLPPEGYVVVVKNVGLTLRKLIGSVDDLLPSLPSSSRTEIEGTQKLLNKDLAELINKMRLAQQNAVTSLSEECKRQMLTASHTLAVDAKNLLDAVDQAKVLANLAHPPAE
Chain of KDR (P35968 20-1356): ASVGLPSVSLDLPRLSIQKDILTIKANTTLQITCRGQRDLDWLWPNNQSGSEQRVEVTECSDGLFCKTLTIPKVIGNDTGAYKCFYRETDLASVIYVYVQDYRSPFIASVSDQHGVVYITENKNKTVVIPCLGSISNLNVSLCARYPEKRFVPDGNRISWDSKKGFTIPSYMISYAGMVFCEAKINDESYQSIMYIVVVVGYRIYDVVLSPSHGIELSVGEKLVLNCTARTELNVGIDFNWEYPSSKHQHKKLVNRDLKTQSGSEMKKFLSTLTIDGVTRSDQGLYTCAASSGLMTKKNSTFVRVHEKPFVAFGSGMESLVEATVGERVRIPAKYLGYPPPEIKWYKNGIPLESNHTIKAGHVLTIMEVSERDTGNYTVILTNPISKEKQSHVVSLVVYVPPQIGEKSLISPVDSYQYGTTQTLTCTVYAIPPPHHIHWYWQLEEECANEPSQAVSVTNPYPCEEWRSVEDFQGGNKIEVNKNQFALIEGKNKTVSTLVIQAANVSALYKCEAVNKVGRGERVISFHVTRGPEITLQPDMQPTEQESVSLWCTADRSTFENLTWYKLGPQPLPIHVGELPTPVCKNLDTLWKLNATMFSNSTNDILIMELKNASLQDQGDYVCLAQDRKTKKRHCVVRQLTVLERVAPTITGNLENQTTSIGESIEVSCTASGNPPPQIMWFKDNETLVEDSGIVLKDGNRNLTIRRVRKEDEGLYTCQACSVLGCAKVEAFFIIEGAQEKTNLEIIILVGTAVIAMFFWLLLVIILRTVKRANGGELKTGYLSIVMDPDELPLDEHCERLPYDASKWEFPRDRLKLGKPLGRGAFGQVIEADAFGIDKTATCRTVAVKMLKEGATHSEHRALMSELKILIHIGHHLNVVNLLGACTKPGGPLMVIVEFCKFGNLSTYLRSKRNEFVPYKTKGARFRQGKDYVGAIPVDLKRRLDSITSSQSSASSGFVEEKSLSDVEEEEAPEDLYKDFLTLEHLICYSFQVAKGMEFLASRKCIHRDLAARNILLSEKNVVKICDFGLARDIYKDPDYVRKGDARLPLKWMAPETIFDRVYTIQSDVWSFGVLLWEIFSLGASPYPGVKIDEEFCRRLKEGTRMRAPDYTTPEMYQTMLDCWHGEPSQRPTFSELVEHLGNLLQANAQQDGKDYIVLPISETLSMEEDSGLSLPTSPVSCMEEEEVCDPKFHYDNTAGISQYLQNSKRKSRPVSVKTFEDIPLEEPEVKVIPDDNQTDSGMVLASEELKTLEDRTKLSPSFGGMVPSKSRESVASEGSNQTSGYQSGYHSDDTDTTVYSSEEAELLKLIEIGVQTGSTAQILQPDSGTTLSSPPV
Chain of IGF1R (P08069 31-1367): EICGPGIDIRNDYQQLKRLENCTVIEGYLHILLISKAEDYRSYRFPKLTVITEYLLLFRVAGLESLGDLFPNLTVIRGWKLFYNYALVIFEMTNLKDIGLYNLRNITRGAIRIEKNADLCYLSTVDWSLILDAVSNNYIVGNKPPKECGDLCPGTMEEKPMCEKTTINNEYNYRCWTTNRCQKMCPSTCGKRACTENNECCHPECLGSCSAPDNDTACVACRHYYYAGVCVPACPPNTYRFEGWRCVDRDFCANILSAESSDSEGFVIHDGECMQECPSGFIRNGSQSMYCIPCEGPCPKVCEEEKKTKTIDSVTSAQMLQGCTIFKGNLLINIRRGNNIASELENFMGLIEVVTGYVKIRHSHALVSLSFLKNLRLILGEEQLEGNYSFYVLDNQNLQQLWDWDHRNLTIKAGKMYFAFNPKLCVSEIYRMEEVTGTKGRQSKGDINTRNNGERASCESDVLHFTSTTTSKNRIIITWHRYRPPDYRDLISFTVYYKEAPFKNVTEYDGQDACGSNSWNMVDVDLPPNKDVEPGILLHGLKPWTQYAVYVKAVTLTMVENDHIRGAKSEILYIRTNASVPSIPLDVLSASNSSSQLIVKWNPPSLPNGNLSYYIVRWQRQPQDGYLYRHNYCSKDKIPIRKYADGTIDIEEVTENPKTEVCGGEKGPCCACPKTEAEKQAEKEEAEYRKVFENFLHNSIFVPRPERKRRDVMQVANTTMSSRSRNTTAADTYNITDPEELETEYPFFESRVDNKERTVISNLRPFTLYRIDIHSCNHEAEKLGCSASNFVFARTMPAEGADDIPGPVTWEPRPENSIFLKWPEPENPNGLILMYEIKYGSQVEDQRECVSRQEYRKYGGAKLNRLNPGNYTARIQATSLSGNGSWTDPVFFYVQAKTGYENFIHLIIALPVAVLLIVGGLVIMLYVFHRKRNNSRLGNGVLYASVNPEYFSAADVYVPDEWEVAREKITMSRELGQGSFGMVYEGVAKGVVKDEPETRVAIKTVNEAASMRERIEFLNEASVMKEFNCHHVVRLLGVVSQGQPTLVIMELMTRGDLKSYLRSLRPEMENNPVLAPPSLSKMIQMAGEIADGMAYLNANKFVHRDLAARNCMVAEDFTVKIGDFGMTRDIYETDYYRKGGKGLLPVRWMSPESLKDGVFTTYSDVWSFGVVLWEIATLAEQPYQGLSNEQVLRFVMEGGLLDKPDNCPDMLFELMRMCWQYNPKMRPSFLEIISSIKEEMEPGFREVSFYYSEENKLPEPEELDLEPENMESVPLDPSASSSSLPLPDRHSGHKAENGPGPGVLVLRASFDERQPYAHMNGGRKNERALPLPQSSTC
Chain of NTRK2 (TRKB) (Q16620 32-822): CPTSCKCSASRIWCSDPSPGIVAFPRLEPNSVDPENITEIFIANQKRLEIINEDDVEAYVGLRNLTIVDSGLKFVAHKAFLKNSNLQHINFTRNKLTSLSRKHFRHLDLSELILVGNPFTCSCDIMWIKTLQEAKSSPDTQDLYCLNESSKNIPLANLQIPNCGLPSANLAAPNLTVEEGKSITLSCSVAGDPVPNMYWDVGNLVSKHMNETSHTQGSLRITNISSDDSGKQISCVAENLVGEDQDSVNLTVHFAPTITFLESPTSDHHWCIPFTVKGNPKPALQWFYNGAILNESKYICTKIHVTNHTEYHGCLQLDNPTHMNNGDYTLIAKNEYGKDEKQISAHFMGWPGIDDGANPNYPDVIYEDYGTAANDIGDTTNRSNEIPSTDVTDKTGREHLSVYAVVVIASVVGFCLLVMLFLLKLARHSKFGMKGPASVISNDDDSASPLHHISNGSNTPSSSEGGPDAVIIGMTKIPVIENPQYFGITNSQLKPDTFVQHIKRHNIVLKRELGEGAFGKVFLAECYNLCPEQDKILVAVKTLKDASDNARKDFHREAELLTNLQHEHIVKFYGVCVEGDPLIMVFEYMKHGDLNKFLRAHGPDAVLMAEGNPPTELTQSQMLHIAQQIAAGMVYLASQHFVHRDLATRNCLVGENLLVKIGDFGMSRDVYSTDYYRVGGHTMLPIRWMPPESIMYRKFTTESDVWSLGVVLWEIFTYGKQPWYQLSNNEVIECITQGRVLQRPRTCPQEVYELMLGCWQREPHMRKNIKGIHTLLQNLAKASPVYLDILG

## CC1(O)CC(c2nc(-c3ccc4ccc(-c5ccccc5)nc4c3)c3c(N)nccn23)C1 (stereo not shown) [OSI-906, 3-[8-Amino-1-(2-phenyl-7-quinolyl)imidazo[1,5-a]pyrazin-3-yl]-1-methyl-cyclobutanol, reference compound]
[1]; 1 nM compound 2 h
  phosphorylated AKT levels normalized to actin levels (pAKT/actin): 0.85
[1]; 100 nM compound 2 h
  phosphorylated AKT levels normalized to actin levels (pAKT/actin): 0.40
KDR
  inhibition at 1 µM: 40 to 59%
HT-29; [2]
  IC50: < 10 µM
HT-29; HT-29, colon cancer, 72 h
  IC50: < 100 µM
HL-60; Homo sapiens, HL-60, 72 h, HL60, promyelocytic leukemia (second entry of the table), 72 h
  IC50: < 10 µM
HL-60; Homo sapiens, HL-60, 72 h, HL-60, promyelocytic leukemia, 72 h
  IC50: < 100 µM
A549; A549, 72 h, 72 h
  IC50: 10 µM
COLO 205; COLO 205, 72 h, COLO-205, colon adenocarcinoma, 72 h
  IC50: 1 µM
HCT-15; HCT-15, 72 h, 72 h
  IC50: < 100 µM
HCT-116; 72 h
  IC50: < 100 µM
SW-620; SW-620, 72 h, 72 h
  IC50: < 100 µM
IGF1R
  inhibition at 1 µM: > 60%

## C[C@@]1(C(=O)Nc2ccc(F)nc2)CCCN1c1nc(Nc2cc(C3CC3)n[nH]2)c2cccn2n1 [BMS-754807, (S)-1-(4-(5-cyclopropyl-1H-pyrazol-3-ylamino)pyrrolo[1,2-f][1,2,4]triazin-2-yl)-N-(6-fluoropyridin-3-yl)-2-methylpyrrolidine-2-carboxamide, reference compound]
[1]; 10 nM compound 2 h
  phosphorylated AKT levels normalized to actin levels (pAKT/actin): 0.09
[1]; 100 nM compound 2 h
  phosphorylated AKT levels normalized to actin levels (pAKT/actin): 0.02
HT-29; [2]
  IC50: < 1 µM
HT-29; HT-29, colon cancer, 72 h
  IC50: < 10 µM
HL-60; HL-60, promyelocytic leukemia, 72 h
  IC50: < 10 µM
HL-60; Homo sapiens, HL-60, HL60, promyelocytic leukemia (second entry of the table), 72 h
  IC50: < 10 µM
A549; 72 h
  IC50: < 10 µM
COLO 205; COLO-205, colon adenocarcinoma, 72 h
  IC50: < 1 µM
HCT-15; HCT-15, 72 h
  IC50: < 100 µM
HCT-116; 72 h
  IC50: 10 µM
SW-620; 72 h
  IC50: 1 µM
BT-20; BT-20, BT20, breast cancer, 72 h
  IC50: < 100 µM
LNCaP; prostate cancer, 72 h
  IC50: < 10 µM
MCF-7; 72 h
  IC50: 0.1 µM
T47D; 72 h
  IC50: < 10 µM
OVCAR-3; 72 h
  IC50: < 10 µM
UACC 812; UACC-812, UACC812, breast cancer, 72 h
  IC50: < 100 µM
HCC 1187; HCC1187, breast cancer, 72 h
  IC50: < 10 µM
ZR-75-1
  IC50: > 100 µM

## O=C(Nc1ccc(F)nc1)C1CC(O)CN1c1nc2c(c(Nc3cc(C4CC4)[nH]n3)n1)CCC2 (single isomer, unassigned) [Compound 10a]
[1]; 1 nM compound 2 h
  phosphorylated AKT levels normalized to actin levels (pAKT/actin): 0.54
[1]; 10 nM compound 2 h
  phosphorylated AKT levels normalized to actin levels (pAKT/actin): 0.00
[1]; 100 nM compound 2 h
  phosphorylated AKT levels normalized to actin levels (pAKT/actin): 0.01
HT-29; HT-29, colon adenocarcinoma, 72 h incubation, Cell Titer-Glo
  IC50: < 0.1 µM
HL-60; Homo sapiens, HL-60, 72 h, HL60, promyelocytic leukemia, 72 h incubation, Cell Titer-Glo
  IC50: 0.1 µM
A549; A549, 72 h, 72 h incubation, Cell Titer-Glo
  IC50: < 10 µM
COLO 205; COLO 205, 72 h, COLO205, colon cancer, 72 h incubation, Cell Titer-Glo
  IC50: < 0.1 µM
HCT-15; HCT-15, 72 h, 72 h incubation, Cell Titer-Glo
  IC50: < 100 µM
HCT-116; [3]
  IC50: 10 µM
SW-620; SW-620, 72 h, 72 h incubation, Cell Titer-Glo
  IC50: < 10 µM
BT-20; BT-20, breast cancer, 72 h incubation, Cell Titer-Glo
  IC50: < 10 µM
LNCaP; Prostate cancer, 72 h incubation, Cell Titer-Glo
  IC50: < 1 µM
MCF-7; [3]
  IC50: < 1 µM
T47D; [3]
  IC50: 1 µM
MDA MB 175
  IC50: < 10 µM
MDA MB 231
  IC50: 10 µM
OVCAR-3; [3]
  IC50: 1 µM
UACC 812; UACC 812, breast cancer, 72 h incubation, Cell Titer-Glo
  IC50: < 10 µM
HCC 1187; HCC1187, HCC-1187, breast cancer, 72 h incubation, Cell Titer-Glo
  IC50: < 1 µM
AXL
  inhibition of AXL in panel of 11 kinases: strongly inhibited
FAK2(PTK2b)
  inhibition of FAK2 in panel of 11 kinases: strongly inhibited
NTRK2 (TRKB)
  inhibition of TrkB in panel of 11 kinases: strongly inhibited
TRKC (NTRK3)
  inhibition of TrkC in panel of 11 kinases: strongly inhibited
